Assay results from PubChem BioAssay (NCI).
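96-well plates; 48 h exposure; 5 concentrations. Endpoints by linear interpolation between flanking doses. Not reached: highest tested concentration assigned. Here, GI50 denotes the concentration required for 50% inhibition of growth. TGI: total growth inhibition.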

Columns and labels:
Assay in all cases: NCI tumour cell line growth inhibition, 48 h
[1] = test system: HOP-92 NSCLC
[2] = test system: SF-539 CNS
[3] = test system: NCI-H23 lung
[4] = test system: SF-295 CNS
[5] = test system: SK-OV-3 ovarian
[6] = test system: MOLT-4 leukemia
[7] = test system: NCI-H460 lung
[8] = test system: OVCAR-3 ovarian
[9] = test system: RXF 393 renal
[10] = test system: DU-145 prostate

Row | Structure (SMILES) | TGI [1] | TGI [2] | TGI [3] | TGI [4] | TGI [5] | TGI [6] | TGI [7] | TGI [8] | TGI [9] | TGI [10] | GI50 [10] | GI50 [1] | GI50 [2] | GI50 [3] | GI50 [4] | GI50 [6] | GI50 [7] | GI50 [8] | GI50 [9]
1 | CCC(C)C(=O)c1c(O)c(C/C=C(\C)CCC=C(C)C)c(O)c2c(C(O)CC)cc(=O)oc12 (configuration not stated) | 5.47 µM | 7.43 µM | 3.89 µM | 7.82 µM | 10.8 µM | 3.94 µM | 7.23 µM | 12.6 µM | 7.19 µM |  |  |  |  |  |  |  |  |  | 
2 | CC[n+]1c(/C=C/c2ccc(N(CCCl)CCCl)cc2)ccc2cc(NC(=O)/C=C/c3ccccc3)ccc21 | 1.07 µM | 2.03 µM | 1.98 µM | 7.81 µM | 2.81 µM | 1.69 µM | 1.36 µM | 11.4 µM | 2.84 µM | 1.64 µM |  |  |  |  |  |  |  |  | 
3 | COc1cc(C2c3cc4c(cc3[C@@H](Nc3cccc(C(C)=O)c3)C3COC(=O)[C@H]23)OCO4)cc(OC)c1O (some centres not stated) | 14.8 µM | 1.24 µM | 3.14 µM | 1.39 µM | 5.28 µM | 0.129 µM | 1.07 µM | 13.9 µM | 5.4 µM |  |  |  |  |  |  |  |  |  | 
4 | COc1ccc(CC(C)N)cc1 (configuration not stated) | > 100 µM | > 100 µM | > 100 µM | > 100 µM | > 100 µM | > 100 µM | > 100 µM | > 100 µM | > 100 µM |  |  |  |  |  |  |  |  |  | 
5 | CCO/N=[N+](\[O-])N(CC)CC | > 100 µM | > 100 µM | > 100 µM | > 100 µM | > 100 µM | > 100 µM | > 100 µM | > 100 µM | > 100 µM |  |  |  |  |  |  |  |  |  | 
6 | CC1(C)N=C(N)N=C(N)N1c1cccc(OCCOc2ccc([N+](=O)[O-])cc2)c1 | > 100 µM | > 100 µM | > 100 µM | > 100 µM | > 100 µM | > 100 µM | > 100 µM | > 100 µM | > 100 µM | > 100 µM |  |  |  |  |  |  |  |  | 
7 | CC(C)C[P+](c1ccccc1)(c1ccccc1)c1ccccc1 | 26.3 µM | > 100 µM | > 100 µM | 90.5 µM | 87.4 µM | > 100 µM | > 100 µM | 84.6 µM |  | > 100 µM |  |  |  |  |  |  |  |  | 
8 | Cc1nc2ccccc2c(=O)[nH]1 | > 100 µM | > 100 µM | > 100 µM | > 100 µM | > 100 µM | > 100 µM | > 100 µM | > 100 µM | > 100 µM |  |  |  |  |  |  |  |  |  | 
9 | ClCc1c(Cl)c(Cl)c(Cl)c(CCl)c1Cl | 3.15 µM | 13.5 µM | 6.67 µM | 27.7 µM |  | 5.86 µM | 3.39 µM | 3.26 µM | 3.08 µM | 3.99 µM | 1.98 µM | 1.55 µM | 3.72 µM | 2.3 µM | 9.07 µM | 2.41 µM | 1.79 µM | 1.86 µM | 1.71 µM
10 | CCOC(=O)/C=C(\C)c1ccc(OC)cc1 | > 100 µM | > 100 µM | > 100 µM | > 100 µM |  |  | > 100 µM |  | > 100 µM |  |  |  |  |  |  |  |  |  | 
11 | COc1cc[n+](C)cc1 | > 100 µM | > 100 µM | > 100 µM | > 100 µM | > 100 µM | > 100 µM | > 100 µM | > 100 µM | > 100 µM |  |  |  |  |  |  |  |  |  | 
